Laboratory results reported in US8772500B2, “TRPV3 modulators” (AbbVie Inc., priority 2011, dated 2014).
Where two headings read alike, the source gives them in different places.

Experiments:
human TRPV3 = biological target: T1, human TRPV3 (Homo sapiens, UniProt Q8NET8); experiment: In vitro antagonism of recombinant human TRPV3 activation (FLIPR Tetra calcium assay, 2-APB as agonist); assay type: cell-based; details: HEK293 cells stably expressing human TRPV3, 2-APB 80 μM
T1 construct: expressed in transfected cells
T1 sequence (Q8NET8 1-790): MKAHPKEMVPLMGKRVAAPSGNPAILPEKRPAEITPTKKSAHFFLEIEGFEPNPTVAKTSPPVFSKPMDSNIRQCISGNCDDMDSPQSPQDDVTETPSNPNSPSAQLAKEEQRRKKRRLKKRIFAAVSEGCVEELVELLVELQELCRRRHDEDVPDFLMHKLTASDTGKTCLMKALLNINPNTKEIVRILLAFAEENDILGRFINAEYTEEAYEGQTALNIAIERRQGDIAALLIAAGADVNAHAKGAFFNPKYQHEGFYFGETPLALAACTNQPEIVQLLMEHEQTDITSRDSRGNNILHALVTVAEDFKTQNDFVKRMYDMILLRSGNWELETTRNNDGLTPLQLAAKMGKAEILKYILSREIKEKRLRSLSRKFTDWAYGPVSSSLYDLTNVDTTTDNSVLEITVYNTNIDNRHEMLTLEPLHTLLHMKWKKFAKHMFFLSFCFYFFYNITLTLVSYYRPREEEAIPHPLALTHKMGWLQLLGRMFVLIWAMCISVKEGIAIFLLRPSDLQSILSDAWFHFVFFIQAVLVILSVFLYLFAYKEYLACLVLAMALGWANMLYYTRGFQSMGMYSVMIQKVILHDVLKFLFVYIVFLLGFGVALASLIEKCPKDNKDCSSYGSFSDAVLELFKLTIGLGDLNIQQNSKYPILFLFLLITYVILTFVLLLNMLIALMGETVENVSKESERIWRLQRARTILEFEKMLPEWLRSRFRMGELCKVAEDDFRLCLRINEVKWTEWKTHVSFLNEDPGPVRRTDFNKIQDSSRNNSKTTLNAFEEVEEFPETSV
Description: Test compounds were evaluated for ability to antagonize the activation of recombinant human TRPV3 using FLIPR® Tetra cellular screening. Specifically, on the day prior to the experiment recombinant HEK293 cells that stably express human TRPV3 were removed from tissue culture flasks and plated in growth medium at 20,000 cells/well into Poly-d-lysine coated black/clear 384-well Plate (Corning, 3845) using a Multidrop® dispenser (ThermoScientific, Waltham, Mass.). Prior to the start of the assay, the medium was removed by aspiration, and cells were loaded with 30 μL no-wash FLIPR® Calcium-4 dye (λEX=470-495 nm, λEM=515-575 nm; Molecular Devices, Sunnyvale, Calif.). The cells were then incubated for 90-120 minutes in the dark prior to addition of the test compound.
A double-addition protocol was used. The test compound (i.e., the TRPV3 antagonist) was added at the 10 second time point, followed by the addition of a TRPV3 agonist three minutes later. Each test compound evaluated was first dissolved in DMSO to prepare a 10 mM stock solution. A solution (5×) of the test compound was then prepared in DPBS (Dulbecco's Phosphate Buffered Saline) and 10 μL of that solution was added to the cells at a delivery rate of 40 μL/sec. The TRPV3 agonist used to activate human TRPV3 expressed by the […] was 2-aminoethoxy-diphenyl borate (2-APB; Tocris Cookson, Ellisville, Mo.) at 80 μM. Final assay volume was 50 μL. Total length of an experimental run was 10 minutes.
Changes in fluorescence were measured over time using the FLIPR® instrument. The intensity of the fluorescence was captured and digitally transferred to an interfaced computer. The maximum response minus minimum response was calculated and expressed as the percentage of the maximum 2-APB response in the absence of antagonist. The concentration of 2-APB corresponds to its EC80.
Table 1 reports the IC50 values measured for the test compounds as human TRPV3 antagonists. […] Actual measured values are shown parenthetically after the reported range. In most cases, the values reported are average values from at least two runs (i.e., n≧2).

[1] = In vitro human microsomal stability assay; assay type: in vitro ADME; details: for HUMAN […] (% REMAINING AFTER 30 MINUTES): 0.5 μM substrate, 0.25 mg/mL microsomal protein, pH 7.4, 37° C., NADPH; for HUMAN MICROSOMAL STABILITY (% REMAINING AFTER 30 MINUTES): 0.5 h, 0.5 μM, pH 7.4
In short: (§1)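 Stability readout reflects compound turnover by hepatic microsomes from Sprague-Dawley rats or from humans, according to the assay. Reactions at 37 °C contained NADPH, which was present in the zero-time plates as well.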

[2] = In vitro rat microsomal stability assay; assay type: in vitro ADME, rat (Sprague-Dawley); details: for RAT […] (% REMAINING AFTER 30 MINUTES): 0.5 μM substrate, 0.25 mg/mL microsomal protein, pH 7.4, 37° C., NADPH; for RAT MICROSOMAL STABILITY (% REMAINING AFTER 30 MINUTES): Sprague-Dawley, 0.5 h, 0.5 μM, pH 7.4
In short: as §1

[3] = range class, read-out: IC50 (reported range)
[4] = mostly average of n≧2, read-out: IC50 (actual measured value, shown parenthetically)

Compound	IC50 (human TRPV3; [3])	HUMAN MICROSOMAL STABILITY (% REMAINING AFTER 30 MINUTES) [1]	RAT MICROSOMAL STABILITY (% REMAINING AFTER 30 MINUTES) [2]	IC50 (human TRPV3; [4])	HUMAN […] (% REMAINING AFTER 30 MINUTES) [1]	RAT […] (% REMAINING AFTER 30 MINUTES) [2]
O[C@H](c1ccccn1)[C@]1(c2cccc(C(F)(F)F)c2)C[C@H](O)C1 (relative stereo) [Example 259, cis-3-[(S)-hydroxy(pyridin-2-yl)methyl]-3-[3-(trifluoromethyl)phenyl]-cyclobutanol]	50 to 500 nM	–	–	–	76%	73%
O[C@H](c1ccccn1)[C@]1(c2cccc(C(F)(F)F)c2)C[C@@H](O)C1 (relative stereo) [Example 264, trans-3-[(S)-hydroxy(pyridin-2-yl)methyl]-3-[3-(trifluoromethyl)phenyl]-cyclobutanol]	50 to 500 nM	–	–	–	56%	59%
OC1CC(c2ccc(Cl)c(Cl)c2)(C(O)c2ccccn2)C1 (single isomer, unassigned) [Example 118]	50 to 500 nM	>85%	74%	–	–	–
CC1(O)CC(c2ccc(OC(F)(F)F)cc2)(C(O)c2ccccn2)C1 (single isomer, unassigned) [Example 134]	501 to 1000 nM	78%	72%	–	–	–
CC1(O)CC(c2ccc(C(F)(F)F)cc2)(C(O)c2ccccn2)C1 (single isomer, unassigned) [Example 232]	1100 to 5000 nM	80%	67%	–	–	–
CC1(O)CC(c2cncc(C(F)(F)F)c2)([C@H](O)c2ccccn2)C1 (stereo in doubt) [Example 309, trans-3-[(S)-hydroxy(pyridin-2-yl)methyl]-1-methyl-3-[5-(trifluoromethyl)-pyridin-3-yl]cyclobutanol]	1100 to 5000 nM	–	–	–	>85%	–
CCN(CC)c1ccc(C2(C(O)c3ccccn3)CCC2)cc1 (stereo not shown) [Example 18, {1-[4-(diethylamino)phenyl]cyclobutyl}(pyridin-2-yl)methanol]	501 to 1000 nM	–	0.27%	–	–	–
OC(c1ncccn1)C1(c2cccc(OC(F)(F)F)c2)CCC1 (stereo not shown) [Example 37, pyrimidin-2-yl{1-[3-(trifluoromethoxy)phenyl]cyclobutyl}methanol]	501 to 1000 nM	–	7.7%	–	–	–
CC(c1cccc(C(F)(F)F)c1)C1(C(O)c2ccccn2)CCC1 (stereo not shown) [Example 54, pyridin-2-yl(1-{1-[3-(trifluoromethyl)phenyl]ethyl}cyclobutyl)methanol]	> 20000 nM	–	0.21%	–	–	–
NC1CCCCC1C(O)C1(c2ccc(C(F)(F)F)cc2)CCC1 (stereo not shown) [Example 207, (2-aminocyclohexyl){1-[4-(trifluoromethyl)phenyl]cyclobutyl}methanol]	1100 to 5000 nM	–	–	–	–	–
NC1CCCC1C(O)C1(c2cccc(OC(F)(F)F)c2)CCC1 (stereo not shown) [Example 208, (2-aminocyclopentyl){1-[3-(trifluoromethoxy)phenyl]cyclobutyl}methanol]	1100 to 5000 nM	–	36%	–	–	–
NC1CCCCC1C(O)C1(c2ccc(OC(F)(F)F)cc2)CCC1 (stereo not shown) [Example 209, (2-aminocyclohexyl){1-[4-(trifluoromethoxy)phenyl]cyclobutyl}methanol]	1100 to 5000 nM	–	–	–	–	–
NC1CCCCC1C(O)C1(c2cccc(OC(F)(F)F)c2)CCC1 (stereo not shown) [Example 210, (2-aminocyclohexyl){1-[3-(trifluoromethoxy)phenyl]cyclobutyl}methanol]	1100 to 5000 nM	–	–	–	–	–
NC1CCCC1C(O)C1(c2ccc(Cl)c(Cl)c2)CCC1 (stereo not shown) [Example 215, (2-aminocyclopentyl) [1-(3,4-dichlorophenyl)cyclobutyl]methanol]	501 to 1000 nM	–	–	–	–	–
N[C@H]1CCC[C@H]1[C@@H](O)C1(c2ccc(Cl)c(Cl)c2)CCC1 [Example 218, (R)-[(1R,2S)-2-aminocyclopentyl][1-(3,4-dichlorophenyl)cyclobutyl]-methanol]	1100 to 5000 nM	–	–	–	–	–

Now from value to compound, other results behind:

IC50 (human TRPV3; [3])	HUMAN MICROSOMAL STABILITY (% REMAINING AFTER 30 MINUTES) [1]	RAT MICROSOMAL STABILITY (% REMAINING AFTER 30 MINUTES) [2]	IC50 (human TRPV3; [4])	Compound	HUMAN […] (% REMAINING AFTER 30 MINUTES) [1]	RAT […] (% REMAINING AFTER 30 MINUTES) [2]
501 to 1000 nM	>85%	69%	–	OC1CC(c2ccc(Cl)c(Cl)c2)(C(O)c2ccccn2)C1 (single isomer, unassigned) [Example 119]	–	–
501 to 1000 nM	54%	41%	–	CC1(O)CC(c2cccc(C(F)(F)F)c2)(C(O)c2ccccn2)C1 (single isomer, unassigned) [Example 236]	–	–
5100 to 20000 nM	40%	12%	11200 nM	OC(c1ccccn1)C1(C2=CCCOC2)CCC1 (single isomer, unassigned) [Example 269, [1-(5,6-dihydro-2H-pyran-3-yl)cyclobutyl](pyridin-2-yl)methanol]	–	–
1100 to 5000 nM	17%	0.48%	3940 nM	OC(c1ccccn1)C1(C2=COCCC2)CCC1 (single isomer, unassigned) [Example 270, [1-(3,4-dihydro-2H-pyran-5-yl)cyclobutyl](pyridine-2-yl)methanol]	–	–
> 20000 nM	>85%	71%	–	OC1CC(c2cc(C(F)(F)F)ccn2)(C(O)c2ccccn2)C1 (single isomer, unassigned) [Example 290]	–	–
50 to 500 nM	–	9.5%	–	OC(c1ncccn1)C1(c2ccc(Cl)c(Cl)c2)CCC1 (stereo not shown) [Example 38, [1-(3,4-dichlorophenyl)cyclobutyl](pyrimidin-2-yl)methanol]	–	–
5100 to 20000 nM	–	–	–	NC1CCCCC1C(O)C1(c2ccc(Cl)c(Cl)c2)CCC1 (stereo not shown) [Example 211, (2-aminocyclohexyl) [1-(3,4-dichlorophenyl)cyclobutyl]methanol]	–	–
1100 to 5000 nM	–	–	–	NC1CCCC1C(O)C1(c2ccccc2OC(F)(F)F)CCC1 (stereo not shown) [Example 214, (2-aminocyclopentyl){1-[2-(trifluoromethoxy)phenyl]cyclobutyl}methanol]	–	–
1100 to 5000 nM	–	–	–	N[C@H]1CCC[C@@H]1[C@H](O)C1(c2ccc(Cl)c(Cl)c2)CCC1 [Example 219, (S)-[(1S,2S)-2-aminocyclopentyl][1-(3,4-dichlorophenyl)cyclobutyl]-methanol]	–	–
1100 to 5000 nM	–	>85%	–	CC1(O)CC(c2cccc(OC(F)(F)F)c2)(C(O)c2ccccn2)C1 [Example 263, trans-3-[(S)-hydroxy(pyridin-2-yl)methyl]-1-methyl-3-[3-(trifluoromethoxy)-phenyl]cyclobutanol]	–	–
501 to 1000 nM	–	–	–	CC1(O)CC(c2ccnc(C(F)(F)F)c2)(C(O)c2ccccn2)C1 [Example 302, cis-3-[(S)-hydroxy(pyridin-2-yl)methyl]-1-methyl-3-[2-(trifluoromethyl)-pyridin-4-yl]cyclobutanol]	–	–
